# Test results published in patent US12686676B2, “Compound, endothelin-A receptor antagonist, and pharmaceutical composition” (Alchemedicine, Inc., priority 2021, dated 2026).
# What was measured:
# [1] = target: T1, CYP2C9 (Homo sapiens, UniProt P11712); assay: CYP2C9 inhibitory effect (liver microsome fraction, diclofenac substrate); type: in vitro ADME; settings: liver microsome fraction 0.5 mg/mL, diclofenac 2.5 μM
# T1 construct: A frozen liver microsome fraction was thawed on ice; from tissue; host or cells: liver microsome fraction
# Protocol: The inhibitory effect on CYP2C9 was evaluated by the following method. • (1) A frozen liver microsome fraction was thawed on ice and diluted with a potassium phosphate buffer (PPB) to a final concentration of 0.5 mg/mL. • (2) A substrate for evaluation (diclofenac: D6899 from Sigma-Aldrich Co. LLC) was added thereto such that its final concentration was 2.5 μM. • (3) The mixture was slowly mixed and incubated at 37±1° C. for 5 minutes to prepare a reaction solution. • (4) 801 μL of the reaction solution was dispensed to each tube, and an evaluation compound serially diluted with 0.9 μL of DMSO was added thereto such that its final concentration was 9.1 to 20000 nM (⅓ dilutions with 8 concentrations). In this context, 0.9 μL of DMSO was added to a negative control group, and 0.9 μL of sulfaphenazole (S0758 from Sigma-Aldrich Co. LLC) adjusted to a final concentration of 1 μM with DMSO was added to a positive control group. • (5) After mixing, a 270 μL aliquot was transferred to each of two fresh tubes and incubated in a shaking water bath at 37±1° C. for 5 minutes. • (6) Reaction was started by the addition of 30 μL of 10 mM NADPH, and the tubes were incubated at 37° C.±1° C. for 10 minutes. • (7) The tubes were taken out of the shaking water bath, and the reaction was terminated by the addition of 300 μL of a reaction stop solution. After mixing, the tubes were centrifuged at 1021×g at 4° C. for 20 minutes. • (8) The amount of the substrate for evaluation metabolized was determined by LC-MS/MS to calculate the rate of inhibition at each concentration of the evaluation compound. • (9) IC50 values were calculated using GraphPad Prism5. A sample having an IC50 value of 1 μM or lower was given “++”; a sample having an IC50 value in the range of higher than 1 μM and 10 μM or lower was given “+”; and a sample having an IC50 value of higher than 10 μM was given “−”.
# [2] = Metabolic stability in human liver microsome; type: in vitro ADME; settings: after 30 minutes with NADPH; also: tested at 0.99 µM
# Protocol: The metabolic stability in a human liver microsome was evaluated by the following method.
# • (1) Human liver microsome: 20 mg/mL • (2) Test compound: 1.1 mM solution in DMSO • (3) Potassium phosphate buffer solution: 66.7 mM (pH 7.4) • (4) NADPH solution: 10 mM in a potassium phosphate buffer solution • (5) Quenching solution: 0.5% formic acid solution in acetonitrile containing warfarin as an internal standard 2. Method
# 971.5 μL of the potassium phosphate buffer solution and 27.5 μL of the human liver microsome were placed in a propylene tube and suspended. 1 μL of the test compound was added thereto, and a 180 μL aliquot of this mixture was transferred to a fresh tube. The mixture was preincubated at 37° C. for 5 minutes. Then, 20 μL of the NADPH solution (for an incubation time of 30 minutes) or 20 μL of the potassium phosphate buffer solution (for an incubation time of 0 minutes) was added thereto. After incubation, the reaction was terminated by the addition of 200 μL of the quenching solution. Subsequently, the tube was centrifuged at 3220×g for 20 minutes, and the concentration of an unchanged form of the test compound in […] of a supernatant was measured by LC-MS/MS. On the basis of the obtained peak area of the unchanged form, the residual rate (%) of the unchanged form was calculated using the rate of 0 minutes of incubation time as 100%.
# [3] = tested on: BigET-1-induced blood pressure; assay: BigET-1-induced blood pressure evaluation test; type: in vivo, Wistar rat; settings: 30 mg/kg into the duodenum 1 hour before BigET-1 (20 μg/kg); Mean ± SD, N = 6
# Protocol: Each 8- to 20-week-old male Wistar rat was subjected to tracheal catheter treatment for airway management, carotid catheter treatment for blood pressure measurement, femoral venous catheter treatment for BigET-1 administration, and duodenal catheter treatment for test substance administration under analgetic treatment and urethane anesthesia. After confirmation that the blood pressure and the heart rate became stable, a vehicle (0.5% methylcellulose 400 solution) or 30 mg/kg (5 ml/kg) of a test substance adjusted with a vehicle was administered into the duodenum. One hour thereafter, BigET-1 (20 μg/kg) was administered thereto, and the blood pressure was monitored until 60 minutes after BigET-1 administration. The test was conducted at n=6 per group. In analysis, systolic blood pressure and diastolic blood pressure were determined for 20 seconds every 5 minutes from 5 minutes before BigET-1 administration to 60 minutes after BigET-1 administration, and AUC0-60 min (mmHg*min) for 60 minutes after BigET-1 administration was calculated using a delta value from the value obtained 5 minutes before BigET-1 administration. The Student's t test was used for the comparison of AUC between the vehicle administration group and the test substance administration group.
# T1 sequence (P11712 whole entry): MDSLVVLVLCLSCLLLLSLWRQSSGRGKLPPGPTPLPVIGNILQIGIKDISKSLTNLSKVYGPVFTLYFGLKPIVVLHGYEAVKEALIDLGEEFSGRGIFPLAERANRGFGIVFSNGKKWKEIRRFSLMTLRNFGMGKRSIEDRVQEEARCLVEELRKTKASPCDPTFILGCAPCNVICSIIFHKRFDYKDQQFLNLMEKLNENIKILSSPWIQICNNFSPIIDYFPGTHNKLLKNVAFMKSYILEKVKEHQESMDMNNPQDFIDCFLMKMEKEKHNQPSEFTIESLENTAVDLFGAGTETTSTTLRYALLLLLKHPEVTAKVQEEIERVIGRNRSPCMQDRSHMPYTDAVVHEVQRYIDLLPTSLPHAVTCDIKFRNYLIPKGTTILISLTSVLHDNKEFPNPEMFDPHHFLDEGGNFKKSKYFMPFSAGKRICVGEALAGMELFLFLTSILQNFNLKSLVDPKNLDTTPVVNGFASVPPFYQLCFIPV
structure (smiles),measurement,setting,value
"Cc1cc2c(cc1C#Cc1ncccc1S(=O)(=O)Nc1noc(C)c1C)C(=O)OC2 [Example 4, N-(4,5-Dimethylisoxazol-3-yl)-2-((6-methyl-3-oxo-1,3-dihydroisobenzofuran-5-yl)ethynyl)pyridine-3-sulfonamide]",IC50,[1],> 10 µM
same,"Metabolic stability (human), residual rate of the unchanged form",[2],49%
"Cc1onc(NS(=O)(=O)c2cccnc2C#Cc2cc3c(cc2Cl)COC3)c1C [Example 6, 2-((6-Chloro-1,3-dihydroisobenzofuran-5-yl)ethynyl)-N-(4,5-dimethylisoxazol-3-yl)pyridine-3-sulfonamide]",IC50,[1],1 to 10 µM
same,"Metabolic stability (human), residual rate of the unchanged form",[2],56%
"Cc1cc2c(cc1C#Cc1ncccc1S(=O)(=O)Nc1onc(C)c1C)C(C)(C)OC2 [Example 8, N-(3,4-Dimethylisoxazol-5-yl)-2-((3,3,6-trimethyl-1,3-dihydroisobenzofuran-5-yl)ethynyl)pyridine-3-sulfonamide]",IC50,[1],> 10 µM
same,"Metabolic stability (human), residual rate of the unchanged form",[2],73%
"COc1nc(C)cnc1NS(=O)(=O)c1cccnc1C#Cc1cc2c(cc1C)COC2(C)C [Example 10, N-(3-Methoxy-5-methylpyrazin-2-yl)-2-((3,3,6-trimethyl-1,3-dihydroisobenzofuran-5-yl)ethynyl)pyridine-3-sulfonamide]",IC50,[1],> 10 µM
same,"Metabolic stability (human), residual rate of the unchanged form",[2],66%
"Cc1cc2c(cc1C#Cc1ncccc1S(=O)(=O)Nc1onc(C)c1Cl)C(C)(C)OC2 [Example 9, N-(4-Chloro-3-methylisoxazol-5-yl)-2-((3,3,6-trimethyl-1,3-dihydroisobenzofuran-5-yl)ethynyl)pyridine-3-sulfonamide]",IC50,[1],1 to 10 µM
same,"Metabolic stability (human), residual rate of the unchanged form",[2],28%
"Cc1cc2c(cc1C#Cc1ncccc1S(=O)(=O)Nc1noc(C)c1C)COC2 [Example 3, N-(4,5-Dimethylisoxazol-3-yl)-2-((6-methyl-1,3-dihydroisobenzofuran-5-yl)ethynyl)pyridine-3-sulfonamide]",IC50,[1],> 10 µM
same,Diastolic blood pressure delta AUC0-60 min,[3],322 ± 435 mmHg*min
same,Systolic blood pressure delta AUC0-60 min,[3],113 ± 565 mmHg*min
same,"Metabolic stability (human), residual rate of the unchanged form",[2],47%
"Cc1cc2c(cc1C#Cc1ncccc1S(=O)(=O)Nc1noc(C)c1Cl)C(C)(C)OC2 [Example 7, N-(4-Chloro-5-methylisoxazol-3-yl)-2-((3,3,6-trimethyl-1,3-dihydroisobenzofuran-5-yl)ethynyl)pyridine-3-sulfonamide]",IC50,[1],1 to 10 µM
same,"Metabolic stability (human), residual rate of the unchanged form",[2],44%
"Cc1onc(NS(=O)(=O)c2cccnc2C#Cc2ccc3c(c2)COC3)c1C [Example 5, 2-((1,3-Dihydroisobenzofuran-5-yl)ethynyl)-N-(4,5-dimethylisoxazol-3-yl)pyridine-3-sulfonamide]",IC50,[1],> 10 µM
same,"Metabolic stability (human), residual rate of the unchanged form",[2],63%
"Cc1cc2c(cc1C#Cc1ncccc1S(=O)(=O)Nc1noc(C)c1C)C(C)(C)OC2 [Example 1, N-(4,5-Dimethylisoxazol-3-yl)-2-((3,3,6-trimethyl-1,3-dihydroisobenzofuran-5-yl)ethynyl)pyridine-3-sulfonamide]",IC50,[1],> 10 µM
same,Diastolic blood pressure delta AUC0-60 min,[3],278 ± 539 mmHg*min
same,Systolic blood pressure delta AUC0-60 min,[3],83 ± 508 mmHg*min
same,"Metabolic stability (human), residual rate of the unchanged form",[2],59%
